Measured values: publication PMC10707934, “Design and Synthesis of Novel α-Methylchalcone Derivatives, Anti-Cervical Cancer Activity, and Reversal of Drug Resistance in HeLa/DDP Cells” (Molecules, 2023)

Key:
[1] = tested on: human cervical epithelial cells H8; assay: MTT toxicity assay, normal cervical epithelial cells H8; type: cell-based; settings: 48 h, mean ± SD
Description: (§1) All cell types, at a volume of 200 µL per well, were inoculated in 96-well plates at a density of 2.5 × 10^4 cells / mL and cultured for 24 h in an incubator with 5% CO2 at 37 °C. The old culture medium was replaced with 200 µL of fresh medium per well containing positive compounds, at concentrations of 1, 6.25, 12.5, 25, 50, and 100 μM. After 48 h of culture, 20 µL per well of 5 mg·mL^−1 MTT solution was added. After 4 h of culture, the old solution was discarded, and 150 µL per well of DMSO solution was added. Using an enzyme labeler (Thermo Fisher Scientific, Multiskan GO, Waltham, MA, USA), the plates were shaken for 10 min, OD values were determined at 490 nm, and the inhibition rate was calculated. Non-linear regression fitting of the cell growth rate was carried out using SPSS 23.0, and the IC50 of the compound was calculated. The inhibition rate was calculated using the formula: [(ODempty − ODtest)/(ODempty − ODnegative group)] × 100%, (ODempty blank group absorbance, ODtest absorbance of administration group, ODnegative group without cell culture medium). Each group contained six compound holes, and the experimental results averaged three trials. Complete medium containing only cells was used as the blank control; a complete medium without cells as was used as the negative control; and cisplatin, paclitaxel, and adriamycin were used as the positive controls. The concentration gradient was the same as that used for compounds 3a–3p.

[2] = tested on: HeLa/DDP cells; assay: Transwell Matrigel invasion assay, HeLa/DDP; type: cell-based, human; settings: 24 h, control 399
Description: The Transwell ([…], Corning Incorporated, New York, NY, USA) was precoated using 50 μL Matrigel for 5 h at 37 °C to achieve solidification. HeLa cells was collected and suspended in a serum-free medium containing varying concentrations (0, 2.5, 5, and 10 μM) of compound 3k, along with 20 μM cisplatin and chalcone. These cell suspensions were then added to the upper wells of a permeabilization chamber at a density of 5 × 10^5 cells/mL. In the lower wells, 600 μL of DMEM containing 10% FBS was added, which had been prepared using 50 μL of Matrigel (diluted 1:8 with serum-free medium from Corning/BD Biosciences). After 24 h of incubation at 37 °C, the invasion cells were fixed using 4% paraformaldehyde and stained using 0.1% crystal violet for 30 min. Then, the chambers were washed using PBS and left to dry. Images were photographed using an inverted fluorescence microscope (Leica Instruments Co., Ltd., Microsystems CMS GmbH, Weizler, Hesse, Germany) and counted using Image J software (V1.8.0.112) for three independent fields randomly.
(§2) The experimental methods for the effects of compound 3k, cisplatin, and chalcone on HeLa/DDP cell invasion and migration were the same as in Section 3.3.6.

[3] = tested on: HeLa/DDP cells; assay: Transwell migration assay, HeLa/DDP; type: cell-based, human; settings: 24 h, control 497
Description: HeLa (5 × 10^4 cells) was suspended in 200 μL of FBS-free medium. The top chamber contained the vehicle and various concentrations of compound 3k (2.5, 5, and 10 μM), cisplatin (20 μM) and chalcone (20 μM). The lower chamber was filled with 600 μL of medium containing 10% FBS. After incubating at 37 °C for 24 h, the cells on the top side of the Transwell membrane were removed with a cotton tip. Cells were fixed and stained with 4% paraformaldehyde (LEAGENE BIOTECHNOLOGY, Cat:DF0135, Lot:0823A23, Zhongguancun, Haidian District, Beijing, China) and 0.1% crystal violet solutions (Leagene Biotechnology, Cat:DZ0055, Lot:0508A23, Zhongguancun, Haidian District, Beijing, China) for 30 min to fix cells trapped on the perforated side of the membrane.
as §2

[4] = tested on: HeLa cells; assay: MTT anti-proliferation assay, HeLa; type: cell-based, human; settings: 48 h, mean ± SD
Description: as §1, with “3a–3p. […]” for “3a–3p.”

[5] = tested on: HeLa/DDP cells; assay: MTT anti-cisplatin-resistant cervical cancer activity, HeLa/DDP; type: cell-based, human; settings: for resistance index (RI): HeLa/DDP versus parental HeLa; for resistance index (RI) / IC50: 48 h; for IC50: HeLa/DDP, MTT, mean ± SD
Description: as §1
To mitigate the detrimental consequences arising from the fixation of resistance reversal agents, concentrations that yielded a tumor cell proliferation rate reduction of less than 10% were selected. Consequently, the inhibitory efficacy of compound 3k against HeLa/DDP cells was assessed in conjunction with cisplatin at concentrations of 0.25, 0.5, and 1 μM. The experimental procedure employed was akin to that elucidated in Section 3.3.2. The impact of verapamil (6 μM) and 3k (0.25, 0.5, and 1 μM) on P-gp expression was ascertained via Western blot experiments, employing the same methodology delineated in Section 3.3.4.

[6] = tested on: HeLa cells; assay: Annexin V-FITC/PI pro-apoptosis assay, HeLa; type: cell-based, human; settings: 24 h
Description: Cell fluid (2 mL per well) at a concentration of 1.5 × 10^5 cells / mL was added to a 6-well plate and cultured in a cell incubator with 5% CO2 at 37 °C for 24 h. The old solution was discarded; 2 mL of the medium containing compound 3k was added to each well at a concentration gradient of 2.5, 5, and 10 μM; and the experiment was repeated three times at each concentration. Complete medium containing only cells was used as a blank control group, and 20 μM of cisplatin injection and chalcone was used as a positive control. Cells were harvested following a 24 h incubation period, adhering to the guidelines provided with the BD kit (BD Biosciences Pharmingen, 556547, 10975 Torreyana Road, San Diego, CA, USA). Subsequently, the cells were subjected to staining in a light-restricted environment at ambient temperature for a duration of 15 min, followed by filtration and analysis via flow cytometry.

Compound | IC50 [1] [µM] | number of invasion cells ([2]; 20 μM) | number of migrated cells ([3]; 20 μM) | IC50 [4] [µM] | resistance index (RI) [5] | IC50 [5] [µM] | pro-apoptotic rate ([6]; 20 μM) [%] | IC50 ([1]; Homo sapiens, Epithelial cell) [µM] | number of invasion cells ([2]; 2.5 μM) | number of invasion cells ([2]; 5 μM) | number of invasion cells ([2]; 10 μM) | number of migrated cells ([3]; 2.5 μM) | number of migrated cells ([3]; 5 μM) | number of migrated cells ([3]; 10 μM) | IC50 ([4]; Homo sapiens) [µM] | inhibition rate against HeLa/DDP cell lines ([5]; HeLa/DDP, 0.25, 0.5, or 1 μM) | IC50 ([5]; Homo sapiens) [µM] | pro-apoptotic rate ([6]; 2.5 μM) [%] | pro-apoptotic rate ([6]; 5 μM) [%] | pro-apoptotic rate ([6]; 10 μM) [%]
N.N.[Cl][Pt][Cl] [Cisplatin, cisplatin, reference compound] | 25.2 ± 1.29 | 301 | 395 | 13 ± 1.82 | 7.90 | 103 ± 3.6 | 46.7 |  |  |  |  |  |  |  |  |  |  |  |  | 
COc1ccc(/C=C(\C)C(=O)c2ccc(Cl)c(Cl)c2)cc1OC [Compound 3k, (E)-1-(3,4-Dichlorophenyl)-3-(3,4-dimethoxyphenyl)-2-methylprop-2-en-1-one] |  |  |  |  | 1.07 |  |  | > 100 | 293 | 237 | 90 | 251 | 179 | 113 | 9.05 ± 0.53 | less than 10% | 9.72 ± 0.73 | 29.6 | 47.2 | 64.8
